Test results as given in PubChem BioAssay AID2060910 (Molecular Pharmacology Branch, DTP, NCI, 2025).
pIC50: −log10 of the molar value. Each block holds one molecule with its values, some of them ahead of it.

Test system: 242566-281-R-J2-PDC complex spheroid viability
Test: Anticancer human tumor 242566-281-R-J2-PDC patient-derived pancreatic carcinoma cell line growth inhibition [RAS]
Conditions: for pIC50: curve of first compound; for viability, T/C: stronger effect = lower value
How it was run: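 Multi-cell-type spheroids: tumor cells plus HUVEC endothelial cells and mesenchymal stem cells. RAS-pathway inhibitors were combined with targeted agents, each dosed in half-log steps down from clinical Cmax, or from 10 microM when Cmax was unknown.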

[1] = second compound 0.000949 µM, first compound 0.0316 µM
[2] = second compound 0.000949 µM, first compound 0.1 µM
[3] = second compound 0.000949 µM, first compound 0.316 µM
[4] = second compound 0.000949 µM, first compound 1 µM
[5] = second compound 0.000949 µM, first compound 3.16 µM
[6] = second compound 0.000949 µM, first compound 10 µM
[7] = second compound 0.003 µM, first compound 0.0316 µM
[8] = second compound 0.003 µM, first compound 0.1 µM
[9] = second compound 0.003 µM, first compound 0.316 µM
[10] = second compound 0.003 µM, first compound 1 µM
[11] = second compound 0.003 µM, first compound 3.16 µM
[12] = second compound 0.003 µM, first compound 10 µM
[13] = second compound 0.00949 µM, first compound 0.0316 µM
[14] = second compound 0.00949 µM, first compound 0.1 µM
[15] = second compound 0.00949 µM, first compound 0.316 µM
[16] = second compound 0.00949 µM, first compound 1 µM
[17] = second compound 0.00949 µM, first compound 3.16 µM
[18] = second compound 0.00949 µM, first compound 10 µM
[19] = second compound 0.03 µM, first compound 0.0316 µM
[20] = second compound 0.03 µM, first compound 0.1 µM
[21] = second compound 0.03 µM, first compound 0.316 µM
[22] = second compound 0.03 µM, first compound 1 µM
[23] = second compound 0.03 µM, first compound 3.16 µM
[24] = second compound 0.03 µM, first compound 10 µM
[25] = second compound 0.0949 µM, first compound 0.0316 µM
[26] = second compound 0.0949 µM, first compound 0.1 µM
[27] = second compound 0.0949 µM, first compound 0.316 µM
[28] = second compound 0.0949 µM, first compound 1 µM
[29] = second compound 0.0949 µM, first compound 3.16 µM
[30] = second compound 0.0949 µM, first compound 10 µM
[31] = second compound 0.3 µM, first compound 0.0316 µM
[32] = second compound 0.3 µM, first compound 0.1 µM
[33] = second compound 0.3 µM, first compound 0.316 µM
[34] = second compound 0.3 µM, first compound 1 µM
[35] = second compound 0.3 µM, first compound 3.16 µM
[36] = second compound 0.3 µM, first compound 10 µM
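Also: spheroids exposed to compound for 7 days before readout.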
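For viability, T/C in this document: 100% = DMSO vehicle control wells.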

pIC50 (second compound 0.000949 µM): 5.10
pIC50 (second compound 0.003 µM): 5.44
pIC50 (second compound 0.00949 µM): > 7.50
pIC50 (second compound 0.03 µM): > 7.50
pIC50 (second compound 0.0949 µM): > 7.50
pIC50 (second compound 0.3 µM): > 7.50
Structure (SMILES): CC(C)NCC(C(=O)N1CCN(c2ncnc3c2C(C)CC3O)CC1)c1ccc(Cl)cc1 (stereo not drawn) + CCn1c(-c2cc(N3CCN(C)CC3)cnc2C(C)OC)c2c3cc(ccc31)-c1csc(n1)CC(NC(=O)C1CC1C)C(=O)N1CCCC(N1)C(=O)OCC(C)(C)C2
viability, T/C [1]: 92.1%
viability, T/C [2]: 92.8%
viability, T/C [3]: 74.8%
viability, T/C [4]: 95.2%
viability, T/C [5]: 75.2%
viability, T/C [6]: 43.9%
viability, T/C [7]: 78%
viability, T/C [8]: 70.3%
viability, T/C [9]: 57.6%
viability, T/C [10]: 64.8%
viability, T/C [11]: 56.9%
viability, T/C [12]: 28.4%
viability, T/C [13]: 49.6%
viability, T/C [14]: 42.6%
viability, T/C [15]: 48.6%
viability, T/C [16]: 41.5%
viability, T/C [17]: 26%
viability, T/C [18]: 17.9%
viability, T/C [19]: 30.9%
viability, T/C [20]: 31.8%
viability, T/C [21]: 28.5%
viability, T/C [22]: 27.1%
viability, T/C [23]: 12%
viability, T/C [24]: 9.97%
viability, T/C [25]: 23.8%
viability, T/C [26]: 22.7%
viability, T/C [27]: 22.1%
viability, T/C [28]: 20.8%
viability, T/C [29]: 7.71%
viability, T/C [30]: 5.5%
viability, T/C [31]: 19.9%
viability, T/C [32]: 18%
viability, T/C [33]: 16.7%
viability, T/C [34]: 13.1%
viability, T/C [35]: 6.93%
viability, T/C [36]: 3.76%

pIC50 (second compound 0.000949 µM): 7.52
pIC50 (second compound 0.003 µM): 8.15
pIC50 (second compound 0.00949 µM): > 9.50
pIC50 (second compound 0.03 µM): > 9.50
pIC50 (second compound 0.0949 µM): > 9.50
pIC50 (second compound 0.3 µM): > 9.50
Structure (SMILES): CC(C)n1nc(-c2ccc3oc(N)nc3c2)c2c(N)ncnc21 + CCn1c(-c2cc(N3CCN(C)CC3)cnc2C(C)OC)c2c3cc(ccc31)-c1csc(n1)CC(NC(=O)C1CC1C)C(=O)N1CCCC(N1)C(=O)OCC(C)(C)C2
viability, T/C (second compound 0.000949 µM, first compound 0.000316 µM): 81.6%
viability, T/C (second compound 0.000949 µM, first compound 0.001 µM): 91.5%
viability, T/C (second compound 0.000949 µM, first compound 0.00316 µM): 61.7%
viability, T/C (second compound 0.000949 µM, first compound 0.01 µM): 71.3%
viability, T/C [1]: 48%
viability, T/C [2]: 27.4%
viability, T/C (second compound 0.003 µM, first compound 0.000316 µM): 75.8%
viability, T/C (second compound 0.003 µM, first compound 0.001 µM): 62.1%
viability, T/C (second compound 0.003 µM, first compound 0.00316 µM): 54.2%
viability, T/C (second compound 0.003 µM, first compound 0.01 µM): 48.7%
viability, T/C [7]: 40.9%
viability, T/C [8]: 20.6%
viability, T/C (second compound 0.00949 µM, first compound 0.000316 µM): 48.5%
viability, T/C (second compound 0.00949 µM, first compound 0.001 µM): 38.4%
viability, T/C (second compound 0.00949 µM, first compound 0.00316 µM): 36.1%
viability, T/C (second compound 0.00949 µM, first compound 0.01 µM): 30.9%
viability, T/C [13]: 28.2%
viability, T/C [14]: 15.8%
viability, T/C (second compound 0.03 µM, first compound 0.000316 µM): 28.5%
viability, T/C (second compound 0.03 µM, first compound 0.001 µM): 29.8%
viability, T/C (second compound 0.03 µM, first compound 0.00316 µM): 26.3%
viability, T/C (second compound 0.03 µM, first compound 0.01 µM): 19.1%
viability, T/C [19]: 11.9%
viability, T/C [20]: 10.4%
viability, T/C (second compound 0.0949 µM, first compound 0.000316 µM): 21.5%
viability, T/C (second compound 0.0949 µM, first compound 0.001 µM): 18.4%
viability, T/C (second compound 0.0949 µM, first compound 0.00316 µM): 18.9%
viability, T/C (second compound 0.0949 µM, first compound 0.01 µM): 13.8%
viability, T/C [25]: 7.41%
viability, T/C [26]: 6.96%
viability, T/C (second compound 0.3 µM, first compound 0.000316 µM): 18.5%
viability, T/C (second compound 0.3 µM, first compound 0.001 µM): 16.6%
viability, T/C (second compound 0.3 µM, first compound 0.00316 µM): 15.2%
viability, T/C (second compound 0.3 µM, first compound 0.01 µM): 11.5%
viability, T/C [31]: 7.41%
viability, T/C [32]: 5.69%

pIC50 (second compound 0.000949 µM): 6.44
pIC50 (second compound 0.003 µM): 7.02
pIC50 (second compound 0.00949 µM): > 7.50
pIC50 (second compound 0.03 µM): > 7.50
pIC50 (second compound 0.0949 µM): > 7.50
pIC50 (second compound 0.3 µM): > 7.50
Structure (SMILES): CC(Nc1ccc2c(c1)OCCn1cc(N3C(=O)OCC3C(F)F)nc1-2)C(N)=O (stereo not drawn) + CCn1c(-c2cc(N3CCN(C)CC3)cnc2C(C)OC)c2c3cc(ccc31)-c1csc(n1)CC(NC(=O)C1CC1C)C(=O)N1CCCC(N1)C(=O)OCC(C)(C)C2
viability, T/C [1]: 85.8%
viability, T/C [2]: 85.2%
viability, T/C [3]: 39.8%
viability, T/C [4]: 39.1%
viability, T/C [5]: 26.5%
viability, T/C [6]: 11.5%
viability, T/C [7]: 70.6%
viability, T/C [8]: 47.3%
viability, T/C [9]: 32.9%
viability, T/C [10]: 22.4%
viability, T/C [11]: 14.5%
viability, T/C [12]: 5.29%
viability, T/C [13]: 40.7%
viability, T/C [14]: 25.1%
viability, T/C [15]: 18.2%
viability, T/C [16]: 11.3%
viability, T/C [17]: 4.65%
viability, T/C [18]: 3.19%
viability, T/C [19]: 26.4%
viability, T/C [20]: 17.9%
viability, T/C [21]: 10.6%
viability, T/C [22]: 5.37%
viability, T/C [23]: 1.87%
viability, T/C [24]: 1.22%
viability, T/C [25]: 16.7%
viability, T/C [26]: 11.5%
viability, T/C [27]: 7.81%
viability, T/C [28]: 3.68%
viability, T/C [29]: 1.35%
viability, T/C [30]: 0.91%
viability, T/C [31]: 16.5%
viability, T/C [32]: 11.3%
viability, T/C [33]: 5.47%
viability, T/C [34]: 3.22%
viability, T/C [35]: 1.55%
viability, T/C [36]: 1.07%

pIC50 (second compound 0.000949 µM): < 5.00
pIC50 (second compound 0.003 µM): < 5.00
pIC50 (second compound 0.00949 µM): < 5.00
pIC50 (second compound 0.03 µM): > 7.50
pIC50 (second compound 0.0949 µM): > 7.50
pIC50 (second compound 0.3 µM): > 7.50
Structure (SMILES): C[C@@H](NC(=O)c1ncnc(N)c1Cl)c1ncc(C(=O)Nc2cc(C(F)(F)F)c(Cl)cn2)s1 + CCn1c(-c2cc(N3CCN(C)CC3)cnc2C(C)OC)c2c3cc(ccc31)-c1csc(n1)CC(NC(=O)C1CC1C)C(=O)N1CCCC(N1)C(=O)OCC(C)(C)C2
viability, T/C [1]: 98.8%
viability, T/C [2]: 114%
viability, T/C [3]: 82.7%
viability, T/C [4]: 97.9%
viability, T/C [5]: 106%
viability, T/C [6]: 76.4%
viability, T/C [7]: 89.8%
viability, T/C [8]: 73.5%
viability, T/C [9]: 71.6%
viability, T/C [10]: 79.2%
viability, T/C [11]: 92.7%
viability, T/C [12]: 62.3%
viability, T/C [13]: 54%
viability, T/C [14]: 49.3%
viability, T/C [15]: 54.7%
viability, T/C [16]: 63.3%
viability, T/C [17]: 58.9%
viability, T/C [18]: 52.7%
viability, T/C [19]: 35.3%
viability, T/C [20]: 35.2%
viability, T/C [21]: 39.9%
viability, T/C [22]: 35.4%
viability, T/C [23]: 29.8%
viability, T/C [24]: 40.1%
viability, T/C [25]: 22.9%
viability, T/C [26]: 24.8%
viability, T/C [27]: 25.7%
viability, T/C [28]: 27.2%
viability, T/C [29]: 23.6%
viability, T/C [30]: 26.3%
viability, T/C [31]: 21.2%
viability, T/C [32]: 23.5%
viability, T/C [33]: 22.2%
viability, T/C [34]: 19.9%
viability, T/C [35]: 21.9%
viability, T/C [36]: 22.6%
